The text below walks through data of patent US9756864B2.

For experiment [1], the system named is Venturia inaequalis. Nature of the experiment: Venturia test (apples)/preventive. The note with it: preventive spray, 10 days after inoculation.
Protocol: Venturia Test (Apples)/Preventive
After the spray coating has dried on, the plants are inoculated with an aqueous conidia suspension of the causal agent of apple scab (Venturia inaequalis) and then remain for 1 day in an incubation cabinet at approximately 20° C. and a relative atmospheric humidity of 100%.
The plants are then placed in a greenhouse at approximately 21° C. and a relative atmospheric humidity of approximately 90%.
The test is evaluated 10 days after the inoculation.
Experiment [2] deals with Alternaria solani. Nature of the experiment: Alternaria test (tomatoes)/preventive. The note with it: preventive spray, 3 days after inoculation.
Protocol: The application rate of QST30002 refers to the amount of dried Bacillus subtilis AQ30002 aka QST300202 (NRRL Accession No. B-50421.
After the spray coating has dried on, the plants are inoculated with an aqueous spore suspension of Alternaria solani. The plants are then placed in an incubation cabinet at approximately 20° C. and a relative atmospheric humidity of 100%.
The test is evaluated 3 days after the inoculation.
Experiment [3] deals with Sphaerotheca fuliginea. Briefly: Sphaerotheca test (cucumbers)/preventive. As to conditions: preventive spray, 7 days after inoculation.
Protocol: Sphaerotheca Test (Cucumbers)/Preventive
After the spray coating has dried on, the plants are inoculated with an aqueous spore suspension of Sphaerotheca fuliginea. The plants are then placed in a greenhouse at approximately 23° C. and a relative atmospheric humidity of approximately 70%.
The test is evaluated 7 days after the inoculation.
For experiment [4], the system named is Phytophthora infestans. In kind it is in vivo. The note with it: Table A; 100 ppm a.i.; tomatoes, preventive spray; 3 days after inoculation.
Experiment [5] concerns Botrytis cinerea. Nature of the experiment: Botrytis test (beans)/preventive. The note with it: Table E, 100 ppm a.i., preventive spray, lesion size 2 days after inoculation.
Protocol: Botrytis Test (Beans)/Preventive
After the spray coating has dried on, 2 small pieces of agar covered with growth of Botrytis cinerea are placed on each leaf. The inoculated plants are placed in a darkened chamber at 20° C. and a relative atmospheric humidity of 100%.
2 days after the inoculation, the size of the lesions on the leaves is evaluated.

As for `O=C(NCCc1ncc(C(F)(F)F)cc1Cl)c1ccccc1C(F)(F)F` [F70 fluopyram, fluopyram], the “Efficacy in % found (activity found)” value was determined as 4% in experiment [1] (Table B1, 4 ppm a.i.); 33% in experiment [2] (Table D1, 4 ppm a.i.); 10% in experiment [3] (Table C2, 4 ppm a.i.).

`CC(C)Oc1cccc(NC(=O)c2ccccc2C(F)(F)F)c1` [F71 flutolanil, flutolanil]: the “Efficacy in % found (activity found)” value in experiment [4] is 33%; in experiment [5], 0%; in experiment [1] (Table B2, 100 ppm a.i.), 4%; in experiment [2] (Table D2, 50 ppm a.i.), 43%; in experiment [3] (Table C1, 100 ppm a.i.) it was 0%.

On to `Cn1cc(C(=O)Nc2ccccc2-c2cc(F)c(F)c(F)c2)c(C(F)F)n1` [F72 fluxapyroxad, fluxapyroxad], for which the “Efficacy in % found (activity found)” value is given as 43% in experiment [1] (Table B1, 0.5 ppm a.i.); 47% in experiment [2] (Table D1, 1 ppm a.i.); 29% in experiment [3] (Table C2, 1 ppm a.i.).

Consider `Cc1nn(C)c(F)c1C(=O)Nc1ccccc1C(C)CC(C)C` (stereo not shown) [F84 penflufen, penflufen], for which the “Efficacy in % found (activity found)” value came out at 0% in experiment [1] (Table B1, 2 ppm a.i.) and 0% in experiment [3] (Table C2, 2 ppm a.i.).
